{
  "source": "patent US20120064125A1",
  "about": "(priority 2009, published 2012)",
  "assay_type_in_all_cases": "cell-based, Staphylococcus aureus",
  "key": {"[1]": {"system": "USA300 strain LAC biofilm", "test": "USA300 biofilm dispersal from a glass surface (flow cell, CLSM)", "conditions": "AIP-I ~50 nM", "description": "FIGS. 1A-B. USA300 biofilm dispersal from a glass surface. USA300 strain LAC with plasmid pALC2084 was inoculated into a once-through flow cell with a glass substratum and incubated for two days. AIP-I (˜50 nM) was added to the flow cell media and biofilm integrity was monitored for 20 hr. For each image depiction, a z series of images was obtained with CLSM and reconstructed with Volocity software, and each side of a grid square is 20 μm in the image reconstruction. (FIG. 1A) Wild-type LAC with pALC2084. (FIG. 1B) LAC ΔAgr:Tet mutant with pALC2084.\nBiofilm Assays. […] For biofilm dispersal tests, AIP type I (AIP-I) was synthesized and quantified using an intein system (Malone et al., 2007), and biofilm dispersal tests were performed as previously described (Boles and Horswill, 2008). […] LAC biofilm integrity was monitored at 6 hr and 22 hr, and COMSTAT analysis was performed to quantify the biofilm properties.\nUSA300 has a functional biofilm dispersal pathway. […] Biofilm integrity was monitored using confocal laser scanning microscopy (CLSM), and as anticipated, the LAC biofilm appeared as a confluent layer ˜20 μm thick (FIG. 1A). […] In scanning the glass substratum, remaining live cells could not be detected, indicating the biomass completely dispersed from the surface."}, "[2]": {"system": "USA300 strain LAC biofilm", "test": "USA300 biofilm dispersal from a titanium surface (flow cell, CLSM)", "conditions": "AIP-I ~50 nM", "description": "FIGS. 6A-B. USA300 biofilm dispersal from a titanium surface. Biofilms of LAC with plasmid pCM12 were grown for two days in the modified flow cell chamber (FIG. 2) that contains titanium as a substratum. AIP-I was added to the flow cell media at ˜50 nM final concentration, and biofilm integrity was monitored for another 20 hr. Each image depiction is a reconstruction of a z series of CLSM images, and each side of a grid square is 20 μm. (FIG. 6A) Wild-type LAC with pCM12. (FIG. 6B) LAC ΔAgr::Tet mutant with pCM12.\nBiofilm Assays. For biofilms grown on glass, flow cell biofilm growth, confocal scanning laser microscopy (CSLM), and computer image analysis were performed as previously described (Boles and Horswill, 2008). To monitor biofilm growth, LAC was transformed with GFP-expressing plasmid pALC2084 (Bateman et al., 2001), and the growth medium was supplemented with 1 μg/ml Cam and 20 ng/ml anhydrotetracycline for plasmid maintenance and induction of GFP expression. […] For biofilm dispersal tests, AIP type I (AIP-I) was synthesized and quantified using an intein system (Malone et al., 2007), and biofilm dispersal tests were performed as previously described (Boles and Horswill, 2008). […] LAC biofilm integrity was monitored at 6 hr and 22 hr, and COMSTAT analysis was performed to quantify the biofilm properties. […]"}, "USA300 strain LAC": {"system": "USA300 strain LAC", "conditions": "48 hr titanium biofilm, AIP ~50 nM for 24 hr, effluent cells tested with rifampicin and levofloxacin", "method": "In parallel, biomass was detached (white triangles, dashed-line error bars) from the coupons with AIP-I addition and collected from flow cell effluents. The detached biomass was treated with identical rifampicin/levofloxacin concentrations and surviving CFU's determined.\nAntibiotic susceptibility. […] To determine antibiotic resistance of dispersed biofilms, AIP was added (˜50 nM) to the media reservoir after 48 hr growth, and the biofilm effluent was collected on ice for 24 hr. Cell concentration was adjusted to the equivalent of one coupon of biomass, or ˜1×10^8 CFU. Cells were treated as described above with the exception that cells were pelleted by centrifugation at 13,000 RPM and then resuspended in 1 mL PBS before sonication.\nTo test antibiotic susceptibility of dispersed cells, LAC biofilms were grown for 48 hr on titanium, exposed to AIP (˜50 nM) for 24 hr, and detached cells were collected from the effluent."}, "[3]": {"conditions": "LAC ΔAgr::Tet mutant (Agr inactivated), 20 hr"}},
  "data": [
    {"sequence": "YSTCDFIM (thiolactone bridge; Synechocystis PCC6803) [AIP-I, made with an intein system]", "values": [
      {"measurement": "biofilm integrity after signal addition", "setting": "[1]; [3]", "value": "no effect on the biofilm integrity"},
      {"measurement": "biofilm integrity (biomass) after signal addition", "setting": "[1]; wild-type LAC, 48 hr biofilm, 20 hr after addition", "value": "complete loss of biomass"},
      {"measurement": "biofilm response to AIP-I", "setting": "[2]; [3]", "value": "did not respond to AIP-I treatment"},
      {"measurement": "biofilm dispersal (biomass)", "setting": "[2]; wild-type LAC, two day biofilm, 20 hr post addition", "value": "complete dispersal of the biomass"},
      {"measurement": "antibiotic susceptibility of cells after AIP-mediated dispersal", "setting": "USA300 strain LAC", "value": "significantly more antibiotic susceptible"}
    ]}
  ]
}
